In one assay the test system is Haemonchus contortus L3. The experiment in a line: microbe, parasite or virus in culture. The class given is cell-based. The following applies: for minimal effective concentration: Haemonchus contortus, 96 h, read-out: HcL3 Minimal Effective Concentration (MEC).
The next assay has as its system D. immitis microfilariae. The experiment in a line: Dirofilaria immitis, microfilariae (DiMF) in vitro motility assay. The class given is cell-based. The following applies: for minimal effective concentration: Dirofilaria immitis, 72 h, read-out: DiMF minimally effective dose (MEC).

Take `O=C(NCc1ccnc(Cl)c1)n1c2c(c3ccc(OC(F)(F)F)cc31)CN(C/C=C/c1ccc(F)cc1Cl)CC2` [Example 346, (E)-2-(3-(2-chloro-4-fluorophenyl)allyl)-N-((2-chloropyridin-4-yl)methyl)-7-(trifluoromethoxy)-1,2,3,4-tetrahydro-5H-pyrido[4,3-b]indole-5-carboxamide]: the minimal effective concentration with Haemonchus contortus L3 amounted to 0.5 µM; in the assay on D. immitis microfilariae, 1.8 µM.

For `N#Cc1ccc2c3c(n(C(=O)NCc4ccnc(F)c4)c2c1)CCN(C/C=C/c1ccc(Cl)c(F)c1F)C3` [Example 53, (E)-2-(3-(4-chloro-2,3-difluorophenyl)allyl)-7-cyano-N-((2-fluoropyridin-4-yl)methyl)-1,2,3,4-tetrahydro-5H-pyrido[4,3-b]indole-5-carboxamide], the minimal effective concentration in the assay with Haemonchus contortus L3 is 5.7 µM; in the assay on D. immitis microfilariae it was above 100 µM.

Consider `N#Cc1ccc(/C=C/CN2CCc3c(c4cc(C(F)(F)F)ccc4n3C(=O)NCc3ccnc(Cl)c3)C2)cc1F` [Example 411, (E)-N-((2-chloropyridin-4-yl)methyl)-2-(3-(4-cyano-3-fluorophenyl)allyl)-8-(trifluoromethyl)-1,2,3,4-tetrahydro-5H-pyrido[4,3-b]indole-5-carboxamide], for which the minimal effective concentration in the assay on Haemonchus contortus L3 was 0.03 µM; in the assay with D. immitis microfilariae, 1.8 µM.

For `CCOc1cc2c(cc1Br)c1c(n2C(=O)NCc2ccnc(Cl)c2)CCN(C/C=C/c2ccc(Cl)cc2)C1` [Example 468, (E)-8-bromo-2-(3-(4-chlorophenyl)allyl)-N-((2-chloropyridin-4-yl)methyl)-7-ethoxy-1,2,3,4-tetrahydro-5H-pyrido[4,3-b]indole-5-carboxamide], the minimal effective concentration in the assay with Haemonchus contortus L3 stood at 0.2 µM; in the assay on D. immitis microfilariae, 1.8 µM.

As to `CSc1ccc2c(c1)c1c(n2C(=O)NCc2ccnc(Cl)c2)CCN(C/C=C/c2ccc(F)cc2)C1` [Example 448, (E)-N-((2-chloropyridin-4-yl)methyl)-2-(3-(4-fluorophenyl)allyl)-8-(methylthio)-1,2,3,4-tetrahydro-5H-pyrido[4,3-b]indole-5-carboxamide], the minimal effective concentration in the assay with Haemonchus contortus L3 was found to be 1.3 µM; with D. immitis microfilariae, 3.3 µM.

With `N#Cc1ccc2c3c(n(C(=O)NCc4ccnc(Cl)c4)c2c1)CCN(C/C=C/c1ccc(Cl)c(F)c1F)C3` [Example 15, (E)-2-(3-(4-chloro-2,3-difluorophenyl)allyl)-N-((2-chloropyridin-4-yl)methyl)-7-cyano-1,2,3,4-tetrahydro-5H-pyrido[4,3-b]indole-5-carboxamide], the minimal effective concentration with Haemonchus contortus L3 was 1 µM; in the assay with D. immitis microfilariae it was above 100 µM.

`O=C(NCc1ccnc(Cl)c1)n1c2c(c3cc(Br)ccc31)CN(C/C=C/c1ccc(F)cc1F)CC2` [Example 181, (E)-8-bromo-N-((2-chloropyridin-4-yl)methyl)-2-(3-(2,4-difluorophenyl)allyl)-1,2,3,4-tetrahydro-5H-pyrido[4,3-b]indole-5-carboxamide]: the minimal effective concentration in the assay with Haemonchus contortus L3 was 0.2 µM; in the assay with D. immitis microfilariae it was 32.3 µM.

Take `O=C(NCc1ccnc(Cl)c1)n1c2c(c3c(OC(F)(F)F)cccc31)CN(C/C=C/c1ccc(Cl)cc1)CC2` [Example 354, (E)-2-(3-(4-chlorophenyl)allyl)-N-((2-chloropyridin-4-yl)methyl)-9-(trifluoromethoxy)-1,2,3,4-tetrahydro-5H-pyrido[4,3-b]indole-5-carboxamide]: the minimal effective concentration with Haemonchus contortus L3 amounted to 57.4 µM; in the assay with D. immitis microfilariae it was 18.2 µM.

Regarding `O=C(NCc1ccnc(F)c1)n1c2c(c3cc(Cl)ccc31)CN(C/C=C/c1ccc(Cl)cc1F)CC2` [Example 255, (E)-8-chloro-2-(3-(4-chloro-2-fluorophenyl)allyl)-N-((2-fluoropyridin-4-yl)methyl)-1,2,3,4-tetrahydro-5H-pyrido[4,3-b]indole-5-carboxamide], the minimal effective concentration in the assay on Haemonchus contortus L3 worked out at 0.3 µM; in the assay with D. immitis microfilariae, 18.2 µM.

In the case of `O=C(NCc1ccnc(Cl)c1)n1c2c(c3cc(OC(F)(F)F)ccc31)CN(C/C=C/c1ccc(C(F)(F)F)cn1)CC2` [Example 385, (E)-N-((2-chloropyridin-4-yl)methyl)-8-(trifluoromethoxy)-2-(3-(5-(trifluoromethyl)pyridin-2-yl)allyl)-1,2,3,4-tetrahydro-5H-pyrido[4,3-b]indole-5-carboxamide], the minimal effective concentration in the assay on Haemonchus contortus L3 is 0.5 µM; in the assay on D. immitis microfilariae, 47.8 µM.

Turning to `CSc1ccc2c(c1)c1c(n2C(=O)NCc2ccnc(Cl)c2)CCN(C/C=C/c2ccc(Cl)cc2)C1` [Example 447, (E)-2-(3-(4-chlorophenyl)allyl)-N-((2-chloropyridin-4-yl)methyl)-8-(methylthio)-1,2,3,4-tetrahydro-5H-pyrido[4,3-b]indole-5-carboxamide], the minimal effective concentration in the assay with Haemonchus contortus L3 turned out to be 0.5 µM; with D. immitis microfilariae, 3.3 µM.

As to `N#Cc1ccc2c(c1)c1c(n2C(=O)NCc2ccnc(Cl)c2)CCN(C/C=C/c2c(F)c(F)c(F)c(F)c2F)C1` [Example 83, (E)-N-((2-chloropyridin-4-yl)methyl)-8-cyano-2-(3-(perfluorophenyl)allyl)-1,2,3,4-tetrahydro-5H-pyrido[4,3-b]indole-5-carboxamide], the minimal effective concentration was 0.1 µM in the assay with Haemonchus contortus L3 and above 100 µM with D. immitis microfilariae.

“(E)-N-((2-chloropyridin-4-yl)methyl)-2-(3-(3,4-dichlorophenyl)allyl)-8-(pyrrolidin-1-yl)-1,2,3,4-tetrahydro-5H-pyrido[4,3-b]indole-5-carboxamide [Example 507]”: the “HcL3 Minimal Effective Concentration (MEC)” value in the assay with Haemonchus contortus L3 is 10.0 µM. Besides, in the assay with D. immitis microfilariae (decrease in microfilariae motility by subjective visual assessment, observed at 72 hours), the “DiMF minimally effective dose (MEC)” value is 13.5 µM.

Regarding `COc1cc(CNC(=O)n2c3c(c4cc(C#N)ccc42)CN(C/C=C/c2ccc(Cl)c(F)c2)CC3)ccn1` [Example 64, (E)-2-(3-(4-chloro-3-fluorophenyl)allyl)-8-cyano-N-((2-methoxypyridin-4-yl)methyl)-1,2,3,4-tetrahydro-5H-pyrido[4,3-b]indole-5-carboxamide], the minimal effective concentration in the assay with Haemonchus contortus L3 amounted to 0.5 µM; with D. immitis microfilariae it was 3.3 µM.

On to `CS(=O)(=O)c1ccc2c(c1)c1c(n2C(=O)NCc2ccnc(Cl)c2)CCN(C/C=C/c2ccc(Cl)c(Cl)c2)C1` [Example 458, (E)-N-((2-chloropyridin-4-yl)methyl)-2-(3-(3,4-dichlorophenyl)allyl)-8-(methylsulfonyl)-1,2,3,4-tetrahydro-5H-pyrido[4,3-b]indole-5-carboxamide], for which the results for the minimal effective concentration in the assay on Haemonchus contortus L3 and with D. immitis microfilariae were 5.7 µM and 3.3 µM, respectively.

Take `Cc1cc(/C=C/CN2CCc3c(c4cc(C#N)ccc4n3C(=O)NCc3ccnc(Cl)c3)C2)ccc1Cl` [Example 96, (E)-2-(3-(4-chloro-3-methylphenyl)allyl)-N-((2-chloropyridin-4-yl)methyl)-8-cyano-1,2,3,4-tetrahydro-5H-pyrido[4,3-b]indole-5-carboxamide]: the values for the minimal effective concentration in the assay on Haemonchus contortus L3 and in the assay with D. immitis microfilariae were 0.2 µM and above 100 µM, respectively.

On to `N#Cc1ccc(/C=C/CN2CCc3c(c4cc(Cl)ccc4n3C(=O)NCc3ccnc(Cl)c3)C2)cc1` [Example 241, (E)-8-chloro-N-((2-chloropyridin-4-yl)methyl)-2-(3-(4-cyanophenyl)allyl)-1,2,3,4-tetrahydro-5H-pyrido[4,3-b]indole-5-carboxamide], for which the minimal effective concentration was determined as 0.4 µM in the assay with Haemonchus contortus L3 and 13.5 µM in the assay on D. immitis microfilariae.

`O=C(NCc1ccnc(Cl)c1)n1c2c(c3cc(C(F)(F)F)ccc31)CN(C/C=C/c1ccc(F)cc1F)CC2` [Example 412, (E)-N-((2-chloropyridin-4-yl)methyl)-2-(3-(2,4-difluorophenyl)allyl)-8-(trifluoromethyl)-1,2,3,4-tetrahydro-5H-pyrido[4,3-b]indole-5-carboxamide]: the minimal effective concentration was 1.8 µM with Haemonchus contortus L3 and 10 µM in the assay on D. immitis microfilariae.

Regarding `N#Cc1ccc2c(c1)c1c(n2C(=O)NCc2ccnc(F)c2)CCN(C/C=C/c2ccc(F)cc2Br)C1` [Example 125, (E)-2-(3-(2-bromo-4-fluorophenyl)allyl)-8-cyano-N-((2-fluoropyridin-4-yl)methyl)-1,2,3,4-tetrahydro-5H-pyrido[4,3-b]indole-5-carboxamide], the minimal effective concentration with Haemonchus contortus L3 is 0.3 µM; with D. immitis microfilariae it was above 100 µM.

As for `N#Cc1ccc2c(c1)c1c(n2C(=O)NCc2ccnc(F)c2)CCN(C/C=C/c2cc(F)cc(F)c2)C1` [Example 117, (E)-8-cyano-2-(3-(3,5-difluorophenyl)allyl)-N-((2-fluoropyridin-4-yl)methyl)-1,2,3,4-tetrahydro-5H-pyrido[4,3-b]indole-5-carboxamide], the figures for the minimal effective concentration in the assay with Haemonchus contortus L3 and with D. immitis microfilariae were 0.2 µM and 1.8 µM, respectively.

Take `O=C(NCc1ccnc(Cl)c1)n1c2c(c3cc(F)c(OC(F)(F)F)cc31)CN(C/C=C/c1ccc(F)cc1)CC2` [Example 471, (E)-N-((2-chloropyridin-4-yl)methyl)-8-fluoro-2-(3-(4-fluorophenyl)allyl)-7-(trifluoromethoxy)-1,2,3,4-tetrahydro-5H-pyrido[4,3-b]indole-5-carboxamide]: the minimal effective concentration came out at 0.3 µM in the assay on Haemonchus contortus L3 and 10 µM in the assay on D. immitis microfilariae.

Take `O=C(NCc1ccnc(Cl)c1)n1c2c(c3cc(F)c(Cl)cc31)CN(C/C=C/c1cc(F)c(F)c(F)c1)CC2` [Example 301, (E)-7-chloro-N-((2-chloropyridin-4-yl)methyl)-8-fluoro-2-(3-(3,4,5-trifluorophenyl)allyl)-1,2,3,4-tetrahydro-5H-pyrido[4,3-b]indole-5-carboxamide]: the minimal effective concentration in the assay with Haemonchus contortus L3 is 0.2 µM; in the assay on D. immitis microfilariae, 18.2 µM.

In the case of `N#Cc1cc2c(cc1F)c1c(n2C(=O)NCc2ccnc(Cl)c2)CCN(C/C=C/c2ccc(F)cc2)C1` [Example 175, (E)-N-((2-chloropyridin-4-yl)methyl)-7-cyano-8-fluoro-2-(3-(4-fluorophenyl)allyl)-1,2,3,4-tetrahydro-5H-pyrido[4,3-b]indole-5-carboxamide], the results for the minimal effective concentration in the assay with Haemonchus contortus L3 and in the assay on D. immitis microfilariae were 1.8 µM and 10 µM, respectively.

These data come from US10570129B2 (Zoetis Services LLC, priority 2015, dated 2020).
